From paper PMC4733634 (Journal of the American Chemical Society, 2015)
Values after ≈ are worked out from the molar mass of the structure shown.

Assays:
[1] = test system: S. aureus quality control strain 43300 (ATCC); experiment: microbe, parasite or virus in culture; type: cell-based; conditions: Staphylococcus aureus, ATCC43300|MRSA, 18 h, read-out: MIC wild-type S.aureus
[2] = test system: lab generated F98Y mutant strain; experiment: Minimum inhibitory concentration, micro-dilution broth assay, F98Y mutant strain; type: cell-based, S. aureus; conditions: Staphylococcus aureus, 18 h, read-out: MIC Sa(F98Y)

COc1cc(Cc2cnc(N)nc2N)cc(OC)c1OC [TMP, trimethoprim]
MIC [1]: 0.312 mg/L (≈ 1.08 µM)
MIC [2]: 10 mg/L (≈ 34.4 µM)
